# Reference: patent US10040804B2, “Compounds targeting proteins, compositions, methods, and uses thereof” (BioTheryX, Inc., priority 2016, dated 2018)
# Tests used:
# IL-6 = IL-6 expression in LPS stimulated PBMCs (Meso Scale); assay type: cell-based, human; conditions: Homo sapiens, PBMC, LPS-stimulated PBMCs; for inhibition at 10 µM: compound concentration 10 μM
# Summary of the method: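 Thawed human PBMCs at 200,000 cells/well in RPMI-1640/10% FBS were pretreated with compound or DMSO for 1 h, then stimulated with 100 ng/mL LPS for 18–24 h. Supernatant IL-6 was measured by Meso Scale assay and expressed as % of LPS-induced activity.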
# TNF-α = TNF-α expression in LPS stimulated PBMCs (Meso Scale); assay type: cell-based, human; conditions: Homo sapiens, PBMC; for inhibition at 10 µM: compound concentration 10 μM
# Summary of the method: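 Thawed primary human PBMCs, 200,000 cells/well in RPMI-1640/10% FBS, pretreated with compound 1 h, then stimulated with 100 ng/mL LPS for 18-24 h. Supernatant TNF-α measured by Meso Scale assay; activity expressed as percentage of LPS-induced level, DMSO as negative control.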
# IL-1β = IL-1β expression in LPS stimulated PBMCs (Meso Scale); assay type: cell-based, human; conditions: Homo sapiens, PBMC; for inhibition at 10 µM: compound concentration 10 μM
# Summary of the method: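 Human PBMCs (200,000 cells/well in RPMI-1640/10% FBS) were pretreated with compound for 1 h, then stimulated with 100 ng/mL LPS for 18-24 h. IL-1β in supernatant was measured by Meso Scale assay. Activity is expressed as percentage of LPS-induced level, with DMSO-treated wells as negative control.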
# IL-2 = assay: anti-CD3-induced IL-2 secretion in PBMCs; assay type: cell-based; conditions: Homo sapiens, PBMC, anti-CD3 stimulated PBMCs, 24 h, DMSO = 1.0, read-out: Fold Change IL-2; for fold induction at 10 µM: compound concentration 10 μM
# Protocol: FIGS. 4 and 9D are graphs showing anti-CD3-induced IL-2 secretion in PBMCs. 1 ug/mL anti-CD3 (OKT-3) antibody in PBS were coated onto 96-well plates overnight at 4° C. Approximately 550,000 PBMCs were added to each well, followed by addition of DMSO only, Compound 1-8 at 10 μM (FIG. 4) or Compound 9 at 0.1 μM or 1 μM (FIG. 9D), or 10 μM lenalidomide (rev). Induction was measured after 24 h as fold difference from the DMSO stimulated control.
# For the IL-2 analysis, 96 well plates were precoated with 1 ug/mL anti-human CD3 antibody (OKT3, eBioscience Inc.). After washing with PBS, compounds were added to the wells (50 μL/well) followed by PBMCs diluted at 3-4 million cells/mL (150 μL/well). Plates were incubated for 24 h and the supernatants collected for Mesoscale IL-2 analysis.
# Compound activity was measured as fold difference from the DMSO control. IL-1-beta activity is shown in FIG. 1; IL-6 activity is shown in FIG. 2; TNF-α activity is shown in FIG. 3; and IL-2 activity is shown in FIG. 4.
# Molm-13 cells = assay: Molm-13 cell viability (CellTiter-Glo); assay type: cell-based; conditions: Homo sapiens, MOLM-13, read-out: % Inhibition (MOLM-13 Cell Viability); for cytotoxicity at 10 µM: compound concentration 10 μM; for cytotoxicity at 2.8 µM: compound concentration 2.8 μM
# Summary of the method: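 Molm-13 (RPMI-1640, 10% FBS) and H1048 (DMEM:F12, 5% FBS with supplements) plated at 20,000 cells/well, treated with compound or 0.1% DMSO for 3 days at 37° C., 5% CO2. Viability read by CellTiter-Glo luminescence after 10 min.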
Compound,inhibition at 10 µM (IL-6),inhibition at 10 µM (TNF-α),inhibition at 10 µM (IL-1β),fold induction at 10 µM (IL-2),cytotoxicity at 10 µM (Molm-13 cells),cytotoxicity at 6 µM (Molm-13 cells; compound concentration 6 μM),cytotoxicity at 2.8 µM (Molm-13 cells),inhibition at 1 µM (IL-6; compound concentration 1 μM),inhibition at 1 µM (TNF-α; compound concentration 1 μM),inhibition at 1 µM (IL-1β; compound concentration 1 μM),fold induction at 1 µM (IL-2; compound concentration 1 μM),cytotoxicity at 0.2 µM (Molm-13 cells; compound concentration 0.2 μM)
"Cc1scc2c1CN([C@H]1CC(=O)NC1=O)C2=O [Compound 20, (S)-3-(1-Methyl-4-oxo-4H-thieno[3,4-c]pyrrol-5(6H)-yl) pyrrolidine-2,5-dione]",19%,58%,50%,2.2,19%,,,,,,,
"O=C1CCC(N2Cc3sccc3C2=O)C(=O)N1 (centres unmarked) [Compound 21, 3-(4-Oxo-4H-thieno[2,3-c]pyrrol-5(6H)-yl)piperidine-2,6-dione]",73%,74%,74%,2.9,16%,,,,,,,
"O=C1CCC(N2C(=O)c3scc(C4CCCC4)c3C2=O)C(=O)N1 (centres unmarked) [Compound 22, 3-Cyclopentyl-5-(2,6-dioxopiperidin-3-yl)-4H-thieno[2,3-c]pyrrole-4,6(5H)-dione]",16%,26%,0%,0.8,23%,,,,,,,
"O=C1CCC(N2Cc3c(csc3C(F)F)C2=O)C(=O)N1 (centres unmarked) [Compound 23, 3-(1-(Difluoromethyl)-4-oxo-4H-thieno[3,4-c]pyrrol-5(6H)-yl)piperidine-2,6-dione]",45%,82%,69%,2,34%,,,,,,,
"O=C1CCC[C@H](N2Cc3c(C4CCCC4)csc3C2=O)C(=O)N1 [Compound 24, (S)-3-(3-Cyclopentyl-6-oxo-4H-thieno[2,3-c]pyrrol-5(6H)-yl)azepane-2,7-dione]",6%,23%,11%,0.7,26%,,,,,,,
"Cc1sc(Cl)c2c1CN([C@H]1CCCC(=O)NC1=O)C2=O [Compound 25, (S)-3-(3-Chloro-1-methyl-4-oxo-4H-thieno[3,4-c]pyrrol-5(6H)-yl)azepane-2,7-dione]",22%,41%,45%,1.3,20%,,,,,,,
"O=C1CCC(N2C(=O)c3cc(C4CCCC4)sc3C2=O)C(=O)N1 (centres unmarked) [Compound 26, 2-Cyclopentyl-5-(2,6-dioxopiperidin-3-yl)-4H-thieno[2,3-c]pyrrole-4,6(5H)-dione]",14%,31%,2%,0.9,0%,,,,,,,
"O=C1CCC(N2C(=O)c3csc(C4CCCC4)c3C2=O)C(=O)N1 (centres unmarked) [Compound 27, 1-Cyclopentyl-5-(2,6-dioxopiperidin-3-yl)-4H-thieno[3,4-c]pyrrole-4,6(5H)-dione]",3%,22%,21%,0.8,0%,,,,,,,
"Cc1scc2c1CN([C@H]1CCCCNC1=O)C2=O [Compound 28, (S)-1-Methyl-5-(2-oxoazepan-3-yl)-5,6-dihydro-4H-thieno[3,4-c]pyrrol-4-one]",9%,0%,0%,0.9,0%,,,,,,,
"Cc1cnc(Nc2ccc(OCCCNCC(=O)NCc3scc4c3CN([C@H]3CCCC(=O)NC3=O)C4=O)cc2)nc1Nc1cccc(S(=O)(=O)NC(C)(C)C)c1 [Compound 58, (S)-2-((3-(4-((4-((3-(N-(tert-Butyl)sulfamoyl)phenyl)amino)-5-methylpyrimidin-2-yl)amino)phenoxy)propyl)amino)-N-((5-(2,7-dioxoazepan-3-yl)-4-oxo-5,6-dihydro-4H-thieno[3,4-c]pyrrol-1-yl)methyl)acetamide]",53%,92%,82%,1.9,,50%,,,,,,
"Cc1cnc(Nc2ccc(OCCCNCC(=O)NCc3scc4c3CN(C3CCC(=O)NC3=O)C4=O)cc2)nc1Nc1cccc(S(=O)(=O)NC(C)(C)C)c1 (centres unmarked) [Compound 59, 2-((3-(4-((4-((3-(N-(tert-Butyl)sulfamoyl)phenyl)amino)-5-methylpyrimidin-2-yl)amino)phenoxy)propyl)amino)-N-((5-(2,6-dioxopiperidin-3-yl)-4-oxo-5,6-dihydro-4H-thieno[3,4-c]pyrrol-1-yl)methyl)acetamide]",10%,81%,45%,1.8,,,50%,,,,,
"Cc1sc2c(c1C)C(c1ccc(Cl)cc1)=N[C@@H](CC(=O)NCCCCNCC(=O)NCc1scc3c1CN(C1CCC(=O)NC1=O)C3=O)c1nnc(C)n1-2 (stereo partly drawn) [Compound 60, 2-((S)-4-(4-Chlorophenyl)-2,3,9-trimethyl-6H-thieno[3,2-f][1,2,4]triazolo[4,3-a][1,4]diazepin-6-yl)-N-(4-((2-(((5-(2,6-dioxopiperidin-3-yl)-4-oxo-5,6-dihydro-4H-thieno[3,4-c]pyrrol-1-yl)methyl)amino)-2-oxoethyl)amino)butyl)acetamide]",,,,,,,,95%,93%,91%,0.2,50%
"Cc1cnc(Nc2ccc(OCCCNC(=O)NCc3scc4c3CN([C@H]3CCCC(=O)NC3=O)C4=O)cc2)nc1Nc1cccc(S(=O)(=O)NC(C)(C)C)c1 [Compound 61, (S)—N-(tert-Butyl)-3-((2-((4-(3-(3-((5-(2,7-dioxoazepan-3-yl)-4-oxo-5,6-dihydro-4H-thieno[3,4-c]pyrrol-1-yl)methyl)ureido)propoxy)phenyl)amino)-5-methylpyrimidin-4-yl)amino)benzenesulfonamide]",11%,66%,53%,0.8,,,50%,,,,,
